Measurements taken from paper PMC6223132 (Journal of controlled release : official journal of the …, 2018).
Converted amounts (≈) assume the structure as drawn.

Experiments:
[1] = In vivo pharmacokinetics and biodistribution of drugamer-released ciprofloxacin; settings: single dose 20 mg/kg intratracheal, over 2 h
Francisella tularensis = settings: cited from earlier work
[2] = tested on: aerosolized F. novicida U112; format: in vivo, C57Bl/6 mice; settings: n=8

SMILES: O=C(O)c1cn(C2CC2)c2cc(N3CCNCC3)c(F)cc2c1=O [free ciprofloxacin, ciprofloxacin]
- elimination from the lungs [1]: rapid elimination
- MIC (Francisella tularensis): 0.03 µg/mL (≈ 0.0905 µM)
- survival rate [2]: 0%
